Calls of active or inactive are those of the source. No cut-off for these calls is given here.
How the values were obtained:
MDA-MB-231 [1] = assay: Induction of apoptosis in human MDA-MB-231 cells assessed as increase in caspase 8 cleavage at 5 to 20 uM by Western blot analysis; format: functional, cell-based; details: dose 5-20 µM
MDA-MB-231 [2] = assay: Induction of apoptosis in human MDA-MB-231 cells assessed as increase in caspase 3 cleavage at 5 to 20 uM by Western blot analysis; format: functional, cell-based; details: dose 5-20 µM
[3] = Solubility of the compound; format: physicochemical
[4] = biological target: Serine/threonine-protein kinase mTOR (Homo sapiens, UniProt P42345); assay: Inhibition of mTOR in human MDA-MB-231 cells assessed as decrease in p70s6k phosphorylation at […] residue at 5 to 20 uM by Western blot analysis; format: cell-based; details: dose 5-20 µM
Histone deacetylase 3 [5] = biological target: T1, Histone deacetylase 3 (Homo sapiens, UniProt O15379); assay: Binding affinity to HDAC3 in human MDA-MB-231 cells assessed as increase in thermal stability at 10 uM measured at 6 hrs by CETSA; format: cell-based
T1 sequence (O15379 whole entry): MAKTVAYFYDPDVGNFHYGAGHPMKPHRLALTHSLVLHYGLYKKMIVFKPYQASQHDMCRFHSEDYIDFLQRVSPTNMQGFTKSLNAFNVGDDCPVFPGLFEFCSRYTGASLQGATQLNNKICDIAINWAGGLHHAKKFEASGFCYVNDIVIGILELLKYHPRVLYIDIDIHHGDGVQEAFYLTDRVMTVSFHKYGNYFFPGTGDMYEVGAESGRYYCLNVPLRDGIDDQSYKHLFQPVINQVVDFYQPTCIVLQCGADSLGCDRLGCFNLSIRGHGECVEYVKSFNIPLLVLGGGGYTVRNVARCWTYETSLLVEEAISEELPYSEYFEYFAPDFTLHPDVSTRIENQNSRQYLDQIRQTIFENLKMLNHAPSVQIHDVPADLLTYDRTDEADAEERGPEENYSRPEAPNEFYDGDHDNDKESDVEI

MDA-MB-231 [6] = assay: Induction of apoptosis in human MDA-MB-231 cells assessed as increase in PARP cleavage at 5 to 20 uM by Western blot analysis; format: functional, cell-based; details: dose 5-20 µM
MCF-10A = assay: Cytotoxicity against human MCF-10A cells assessed as increase in cell viability; format: cell-based
Histone deacetylase 2 [7] = biological target: T2, Histone deacetylase 2 (Homo sapiens, UniProt Q92769); assay: Inhibition of HDAC2 (unknown origin)
T2 sequence (Q92769 whole entry): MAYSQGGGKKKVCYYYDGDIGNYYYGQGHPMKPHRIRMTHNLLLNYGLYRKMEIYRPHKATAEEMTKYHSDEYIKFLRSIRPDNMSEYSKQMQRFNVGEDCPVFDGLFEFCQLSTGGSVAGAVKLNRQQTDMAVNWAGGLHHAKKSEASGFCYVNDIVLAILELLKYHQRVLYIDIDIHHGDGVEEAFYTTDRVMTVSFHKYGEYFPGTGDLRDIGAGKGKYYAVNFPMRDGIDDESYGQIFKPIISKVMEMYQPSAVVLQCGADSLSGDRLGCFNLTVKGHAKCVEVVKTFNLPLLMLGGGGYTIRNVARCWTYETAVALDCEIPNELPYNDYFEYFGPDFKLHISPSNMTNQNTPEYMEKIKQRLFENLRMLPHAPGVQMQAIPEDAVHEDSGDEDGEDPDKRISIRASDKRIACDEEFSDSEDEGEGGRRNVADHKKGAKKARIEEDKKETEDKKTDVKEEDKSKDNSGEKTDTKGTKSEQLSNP

MDA-MB-231 [8] = assay: Induction of apoptosis in human MDA-MB-231 cells assessed as late apoptotic cells at 20 uM by annexin V/propidium iodide staining-based flow cytometry analysis (reference value: 2.34 %); format: functional
MDA-MB-231 [9] = assay: Inhibition of cell migration in human MDA-MB-231 cells assessed as increase in E-cadherin expression at 5 to 20 uM after 48 hrs by Western blot analysis; format: functional, cell-based; details: dose 5-20 µM
MDA-MB-231 [10] = assay: Inhibition of cell migration in human MDA-MB-231 cells assessed as decrease in MMP-2 expression at 5 to 20 uM after 48 hrs by Western blot analysis; format: functional, cell-based; details: dose 5-20 µM
[11] = biological target: T3, Protein deacetylase HDAC6 (Homo sapiens) (UniProt Q9UBN7); assay: Inhibition of HDAC6 in human MDA-MB-231 cells assessed as increase in acetylated lysine at 5 to 20 uM by Western blot analysis; format: cell-based; details: dose 5-20 µM
T3 sequence (whole entry): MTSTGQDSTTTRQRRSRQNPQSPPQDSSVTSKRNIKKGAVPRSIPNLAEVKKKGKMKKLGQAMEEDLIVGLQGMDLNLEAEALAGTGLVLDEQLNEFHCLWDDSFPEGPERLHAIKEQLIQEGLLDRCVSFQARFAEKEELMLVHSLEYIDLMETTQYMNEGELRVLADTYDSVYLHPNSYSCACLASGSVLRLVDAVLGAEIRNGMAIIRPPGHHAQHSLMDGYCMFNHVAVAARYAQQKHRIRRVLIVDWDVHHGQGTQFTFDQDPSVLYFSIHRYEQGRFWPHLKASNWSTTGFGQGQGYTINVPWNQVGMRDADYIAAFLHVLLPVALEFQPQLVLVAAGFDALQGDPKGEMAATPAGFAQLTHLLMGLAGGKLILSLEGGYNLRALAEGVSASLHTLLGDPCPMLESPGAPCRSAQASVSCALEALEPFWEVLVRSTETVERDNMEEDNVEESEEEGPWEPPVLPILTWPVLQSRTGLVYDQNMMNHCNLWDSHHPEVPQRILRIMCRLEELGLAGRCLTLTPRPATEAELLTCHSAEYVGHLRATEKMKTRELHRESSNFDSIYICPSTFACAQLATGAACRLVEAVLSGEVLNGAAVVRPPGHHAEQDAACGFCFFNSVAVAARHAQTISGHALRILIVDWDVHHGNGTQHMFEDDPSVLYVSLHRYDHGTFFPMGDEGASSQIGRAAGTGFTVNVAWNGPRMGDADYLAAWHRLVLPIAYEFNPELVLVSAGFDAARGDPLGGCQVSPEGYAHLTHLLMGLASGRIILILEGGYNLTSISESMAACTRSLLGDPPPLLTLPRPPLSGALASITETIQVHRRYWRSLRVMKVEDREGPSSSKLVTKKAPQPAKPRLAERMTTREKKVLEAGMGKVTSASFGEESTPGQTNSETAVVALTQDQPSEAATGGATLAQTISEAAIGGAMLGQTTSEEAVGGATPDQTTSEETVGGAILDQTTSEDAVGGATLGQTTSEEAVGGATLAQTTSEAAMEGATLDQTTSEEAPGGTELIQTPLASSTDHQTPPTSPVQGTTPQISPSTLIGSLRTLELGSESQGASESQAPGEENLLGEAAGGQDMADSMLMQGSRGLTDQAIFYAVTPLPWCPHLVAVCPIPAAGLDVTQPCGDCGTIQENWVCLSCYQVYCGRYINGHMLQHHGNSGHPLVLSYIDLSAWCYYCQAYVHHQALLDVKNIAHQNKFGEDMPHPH

MDA-MB-468 = assay: Antiproliferative activity against human MDA-MB-468 cells measured after 48 hrs; format: functional, cell-based; details: MDA-MB-468, 48 h
MDA-MB-231 [12] = assay: Induction of apoptosis in human MDA-MB-231 cells assessed as early apoptotic cells at 10 uM by annexin V/propidium iodide staining-based flow cytometry analysis (reference value: 0.69 %); format: functional
MDA-MB-231 [13] = assay: Induction of apoptosis in human MDA-MB-231 cells assessed as live cells at 10 uM by annexin V/propidium iodide staining-based flow cytometry analysis (reference value: 96.7 %); format: functional
MDA-MB-231 [14] = assay: Inhibition of cell migration in human MDA-MB-231 cells after 48 hrs by transwell assay; format: functional, cell-based; details: dose 5-20 µM
MDA-MB-231 [15] = assay: Induction of apoptosis in human MDA-MB-231 cells assessed as downregulation of Bcl-2 at 5 to 20 uM by Western blot analysis; format: functional, cell-based; details: dose 5-20 µM
MDA-MB-231 [16] = assay: Inhibition of cell migration in human MDA-MB-231 cells after 48 hrs by wound healing assay; format: functional, cell-based; details: dose 5-20 µM
MDA-MB-231 [17] = assay: Induction of apoptosis in human MDA-MB-231 cells assessed as late apoptotic cells at 5 uM by annexin V/propidium iodide staining-based flow cytometry analysis (reference value: 2.34 %); format: functional
MDA-MB-231 [18] = assay: Induction of apoptosis in human MDA-MB-231 cells assessed as late apoptotic cells at 10 uM by annexin V/propidium iodide staining-based flow cytometry analysis (reference value: 2.34 %); format: functional
MDA-MB-231 [19] = assay: Antiproliferative activity against human MDA-MB-231 cells measured after 48 hrs; format: functional, cell-based; details: MDA-MB-231, 48 h
Histone deacetylase 2 [20] = biological target: T2, Histone deacetylase 2; assay: Binding affinity to HDAC2 in human MDA-MB-231 cells assessed as increase in thermal stability at 10 uM measured at 6 hrs by CETSA; format: cell-based
MDA-MB-231 [21] = assay: Antiproliferative activity against human MDA-MB-231 cells assessed as inhibition of clone formation at 2.5 to 10 uM; format: functional, cell-based; details: dose 2.5-10 µM
MDA-MB-231 [22] = assay: Induction of apoptosis in human MDA-MB-231 cells assessed as live cells at 20 uM by annexin V/propidium iodide staining-based flow cytometry analysis (reference value: 96.7 %); format: functional
Histone deacetylase 3 [23] = biological target: T1, Histone deacetylase 3; assay: Inhibition of HDAC3 (unknown origin)

## CN1CCN(c2nc(-c3ccc(C(=O)NO)cc3)nc3cc(Cl)ccc23)CC1
MDA-MB-231 [1]
  Activity: Active
MDA-MB-231 [2]
  Activity: Active
[3]
  solubility: Insoluble
[4]
  inhibition: Active
Histone deacetylase 3 [5]
  Activity: inactive
MDA-MB-231 [6]
  Activity: Active
MCF-10A
  Activity: Non-Toxic
Histone deacetylase 2 [7]
  IC50: 0.374 µM
MDA-MB-231 [8]
  Activity: 34.3%
MDA-MB-231 [9]
  inhibition: Active
MDA-MB-231 [10]
  inhibition: Active
[11]
  inhibition: Active
MDA-MB-468
  IC50: 14.3 µM
MDA-MB-231 [12]
  Activity: 7.95%
MDA-MB-231 [13]
  Activity: 69.1%
MDA-MB-231 [14]
  inhibition: Active
MDA-MB-231 [15]
  Activity: Active
MDA-MB-231 [16]
  inhibition: Active
MDA-MB-231 [17]
  Activity: 6.39%
MDA-MB-231 [18]
  Activity: 22.4%
MDA-MB-231 [19]
  IC50: 8.4 µM
Histone deacetylase 2 [20]
  Activity: inactive
MDA-MB-231 [21]
  inhibition: Active
MDA-MB-231 [22]
  Activity: 53.9%
Histone deacetylase 3 [23]
  IC50: 0.414 µM
